Reference: patent publication US10759797B2, “Pharmaceutically acceptable salt of EGFR inhibitor, crystal form thereof, preparation method therefor and application thereof” (Wuxi Shuangliang Biotechnology Co., Ltd., priority 2017, dated 2020)
In brackets after ≈: the same amount, converted by molar mass. Counter-ions that a name gives are not always drawn.

How the values were obtained:
Type in all cases: physicochemical
[1] = Solubility study in artificial gastric fluid (saturated solutions, HPLC linear equation; Pharmacopoeia and BCS classification); conditions: for Pharmacopoeia of the People's Republic of China Solubility level / Solubility in artificial gastric fluid, 1 h / Solubility in artificial gastric fluid, 4 h / Solubility in artificial gastric fluid, 24 h / BCS level (Do): artificial gastric fluid; for Solubility in artificial gastric fluid compared with water: artificial gastric fluid versus water; for Solubility in artificial gastric fluid, 1 h / Solubility in artificial gastric fluid, 4 h / Solubility in artificial gastric fluid, 24 h: saturated solution; for Solubility in artificial gastric fluid, 1 h: standing 1 hour; for Solubility in artificial gastric fluid, 4 h: standing 4 hours; for Solubility in artificial gastric fluid, 24 h: standing 24 hours; for BCS level (Do): Do=(Mo/Vo)/Cs, Mo 80 mg, Vo about 250 ml, Do≤1 solubility high, Do>1 low; for Degradation in the solubility study: water and artificial gastric fluid, up to 24 hours
From the text: (§1) Various pharmaceutically acceptable salts of EGFR inhibitor present in form of crystal in Examples 1 to 3 and 5 to 6 were classified with reference to the relevant requirements of the Pharmacopoeia of the People's Republic of China and the Bio-pharmaceutics Classification System (BCS).
(§2) (a) Relevant Requirements of Solubility in the Pharmacopoeia of the People's Republic of China, 2015 Edition, General Notices:
(§3) (b) Relevant Requirements of Solubility in BCS: Do=(Mo/Vo)/Cs;
(§4) wherein Do: dose index; Mo: highest single dose of the drug (with reference to the relevant dose of osimertinib, tentatively set to 80 mg); Vo: the volume of body fluid required for dissolving the drug (about 250 ml); Cs: saturated solubility of the drug;
(§5) if Do≤1, solubility is high; and if Do>1, solubility is low.
(§6) Using an EGFR inhibitor free base as a control, linear regression was carried out by plotting peak area versus concentration, and the corresponding linear equation was obtained in the range of 0.025 to 1.5 mg/ml: A=19775.0411c+2.4256, r=1.0000.
Artificial gastric fluid was used as solvent. An appropriate amount of the EGFR inhibitor mesylate salt (crystal form A), p-toluenesulfonate salt (crystal form B), phosphate salt (crystal form C), phosphate salt (amorphous), hydrochloride salt (crystal form C), and citrate salt (crystal form E) prepared in Examples 1 to 6 was weighed, and prepared into saturated solutions. Samples were taken after standing for 1 hour, 4 hours, and 24 hours, respectively, and the concentration of each sample in saturation state was calculated according to the linear equation.

[2] = Hygroscopicity study of crystal forms (Chinese Pharmacopoeia 2015, part 4, appendix 9103); conditions: for Hygroscopicity as compared with that of the EGFR inhibitor present in a free base form: 25° C./RH 80%; for Weight gain over 6 hours (%) / Weight gain over 24 hours (%) / Hygroscopicity: 25° C.±1° C., relative humidity 80%±2%; for Hygroscopicity: Pharmacopoeia class
Method: Hygroscopicity comparison study was carried out for various pharmaceutically acceptable salts of EGFR inhibitor present in the form of crystal in Examples 1 to 3 and 5 to 6, the amorphous EGFR inhibitor phosphate salt in Example 4, and the EGFR inhibitor present in a free base form. Tests were conducted according to the method in the Pharmacopoeia of the People's Republic of China, 2015 edition, part 4, appendix 9103 (temperature: 25° C.±1° C., relative humidity: 80%±2%), and the results were as shown in Table 6.
With regard to the description of hygroscopic properties and definition of hygroscopic weight gain, refer to the Pharmacopoeia of the People's Republic of China, 2015 edition, part 4, appendix 9103, experimental guideline of drug hygroscopicity, herein descried by way of example as follows.
Deliquescence: absorb enough water to form a liquid.
Very hygroscopic: hygroscopic weight gain […] 15%.
Hygroscopic: hygroscopic weight gain less than 15% but not less than 2%.
Non- or almost non-hygroscopic: hygroscopic weight gain less than 0.2%.

[3] = Solubility study in water (saturated solutions, HPLC linear equation; Pharmacopoeia and BCS classification); conditions: in water and artificial gastric fluid
[4] = as above; conditions: for BCS level (Do): Do=(Mo/Vo)/Cs, Mo 80 mg, Vo about 250 ml, Do≤1 solubility high, Do>1 low; for Solubility in water, 1 h / Solubility in water, 4 h / Solubility in water, 24 h: saturated solution; for Solubility in water, 1 h: standing 1 hour; for Solubility in water, 4 h: standing 4 hours; for Solubility in water, 24 h: standing 24 hours
From the text: as §1, §2, §3, §4, §5, §6
Water was used as solvent. An appropriate amount of the EGFR inhibitor mesylate salt, p-toluenesulfonate salt, phosphate salt, hydrochloride salt and citrate salt prepared in Examples 1 to 3 and 5 to 6 was weighed, and prepared into saturated solutions. Samples were taken after standing for 1 hour, 4 hours, and 24 hours, respectively, and the concentration of each sample in saturation state was calculated according to the linear equation.

[5] = One month accelerated stability study at 40° C./75% RH (shape, purity, XRPD); conditions: for Appearance, 1 month / Purity (%), 1 month / XRPD pattern (0 month versus 1 month): after 1 month at 40° C./75% RH; for Appearance, 0 month / Purity (%), 0 month: start of study (0 month)
Method: The six pharmaceutically acceptable salts of EGFR inhibitor in Examples 1 to 6 were placed in a condition of 40° C./75% RH, and a one month accelerated stability study was carried out. Samples were taken at the end of 0 and 1 month respectively, and emphasis was placed upon the shape, purity and crystal form stability (XRPD pattern) of the samples.
Stable refers to no occurrence of degradation and no detection of transformation to other crystal forms by analytical means such as chromatography and XRPD.

[6] = listed as citrate salt (crystal form E)
[7] = listed as hydrochloride salt (crystal form D)
[8] = listed as p-toluenesulfonate salt (crystal form B)

SMILES	Pharmacopoeia of the People's Republic of China Solubility level [1]	Solubility in artificial gastric fluid, 1 h [1] [mg/mL]	Solubility in artificial gastric fluid, 4 h [1] [mg/mL]	Solubility in artificial gastric fluid, 24 h [1] [mg/mL]	BCS level (Do) [1]	Degradation in the solubility study [1]	Weight gain over 6 hours (%) [2] [%]	Weight gain over 24 hours (%) [2] [%]	Hygroscopicity [2]	Solubility with reference to Pharmacopoeia solubility classification [3]	Pharmacopoeia of the People's Republic of China Solubility level [4]	BCS level (Do) [4]	Solubility in water, 1 h [4] [mg/mL]	Solubility in water, 4 h [4] [mg/mL]	Solubility in water, 24 h [4] [mg/mL]	Appearance, 1 month [5]	Purity (%), 1 month [5] [%]	XRPD pattern (0 month versus 1 month) [5]	Appearance, 0 month [5]	Solubility in artificial gastric fluid compared with water [1]	further results
C=CC(=O)Nc1cc(Nc2nccc(-c3cn(C)c4cccnc34)n2)c(OC)cc1N(C)CCN(C)C [phosphate salt (amorphous)]	freely soluble	123.56	136.76	138.91	0.0023 < 1	no significant degradation	1.2	1.5	slightly hygroscopic	high	freely soluble	0.0034 < 1	88.32	92.14	94.56	light grey solid	98.7	consistent	light grey solid	higher solubility in artificial gastric fluid than in water	Hygroscopicity as compared with that of the EGFR inhibitor present in a free base form ([2]; listed as amorphous phosphate salt): lower hygroscopicity; Purity (%), 0 month [5]: 98.9%
C=CC(=O)Nc1cc(Nc2nccc(-c3cn(C)c4cccnc34)n2)c(OC)cc1N(C)CCN(C)C [citrate salt]	freely soluble	168.51	196.47	176.88	0.0018 < 1	no significant degradation	2.23	2.48	hygroscopic	high	freely soluble	0.0024 < 1	143.59	137.34	133.57			consistent		higher solubility in artificial gastric fluid than in water	Hygroscopicity as compared with that of the EGFR inhibitor present in a free base form ([2]; listed as citrate salt crystal form E): comparable hygroscopicity; Appearance, 1 month [5, 6]: light grey solid; Purity (%), 1 month [5, 6]: 99.1%; Appearance, 0 month [5, 6]: light grey solid; Purity (%), 0 month [5, 6]: 98.9%
C=CC(=O)Nc1cc(Nc2nccc(-c3cn(C)c4cccnc34)n2)c(OC)cc1N(C)CCN(C)C [phosphate salt (crystal form C)]	freely soluble	156.70	159.14	147.08	0.0022 < 1	no significant degradation	9.15	11.98	hygroscopic	high	freely soluble	0.0023 < 1	107.15	133.32	137.13	tan solid	98.5	consistent	tan solid	higher solubility in artificial gastric fluid than in water	Hygroscopicity as compared with that of the EGFR inhibitor present in a free base form [2]: higher hygroscopicity; Purity (%), 0 month [5]: 98.5%

The next lines start with results.

Pharmacopoeia of the People's Republic of China Solubility level [1]	Solubility in artificial gastric fluid, 1 h [1] [mg/mL]	Solubility in artificial gastric fluid, 4 h [1] [mg/mL]	Solubility in artificial gastric fluid, 24 h [1] [mg/mL]	BCS level (Do) [1]	Degradation in the solubility study [1]	Weight gain over 6 hours (%) [2] [%]	Weight gain over 24 hours (%) [2] [%]	Hygroscopicity [2]	Solubility with reference to Pharmacopoeia solubility classification [3]	Pharmacopoeia of the People's Republic of China Solubility level [4]	BCS level (Do) [4]	Solubility in water, 1 h [4] [mg/mL]	Solubility in water, 4 h [4] [mg/mL]	Solubility in water, 24 h [4] [mg/mL]	Appearance, 1 month [5]	Purity (%), 1 month [5] [%]	XRPD pattern (0 month versus 1 month) [5]	Appearance, 0 month [5]	SMILES	Solubility in artificial gastric fluid compared with water [1]	further results
soluble	83.79	79.18	70.03	0.0046 < 1	no significant degradation	0.72	1.29	slightly hygroscopic		sparingly soluble	0.0302 < 1	13.43	11.09	10.59			consistent		C=CC(=O)Nc1cc(Nc2nccc(-c3cn(C)c4cccnc34)n2)c(OC)cc1N(C)CCN(C)C [hydrochloride salt]	higher solubility in artificial gastric fluid than in water	Hygroscopicity as compared with that of the EGFR inhibitor present in a free base form ([2]; listed as hydrochloride salt crystal form D): lower hygroscopicity; Appearance, 1 month [5, 7]: tan solid; Purity (%), 1 month [5, 7]: 99.3%; Appearance, 0 month [5, 7]: tan solid; Purity (%), 0 month [5, 7]: 99.2%
	0.84 (≈ 1680 µM)	0.86 (≈ 1720 µM)	0.71 (≈ 1420 µM)	0.4515 < 1	no significant degradation	1.7	2.2	hygroscopic			606.30 > 1	<0.025	<0.025	<0.025					C=CC(=O)Nc1cc(Nc2nccc(-c3cn(C)c4cccnc34)n2)c(OC)cc1N(C)CCN(C)C [free base]	higher solubility in artificial gastric fluid than in water	
soluble	46.21	46.75	47.03	0.0068 < 1	no significant degradation	0.04	0.04			slightly soluble	0.2057 < 1	1.82	1.78	1.56			consistent		C=CC(=O)Nc1cc(Nc2nccc(-c3cn(C)c4cccnc34)n2)c(OC)cc1N(C)CCN(C)C [p-toluenesulfonate salt]	higher solubility in artificial gastric fluid than in water	Hygroscopicity as compared with that of the EGFR inhibitor present in a free base form ([2]; listed as p-toluenesulfonate salt crystal form B): lower hygroscopicity; Appearance, 1 month [5, 8]: light tan solid; Purity (%), 1 month [5, 8]: 98.7%; Appearance, 0 month [5, 8]: light tan solid; Purity (%), 0 month [5, 8]: 98.7%
